Results taken from patent US6001884A, “Calcium receptor-active molecules” (NPS Pharmaceuticals, Inc., priority 1995, dated 1999).
pEC50: −log10 of the molar value. Structures can show the parent of a compound that is named as a salt. Where two headings read alike, the source gives them in different places.

Target: T1, calcium receptor (Homo sapiens, UniProt P41180)
T1 sequence (P41180 20-1078): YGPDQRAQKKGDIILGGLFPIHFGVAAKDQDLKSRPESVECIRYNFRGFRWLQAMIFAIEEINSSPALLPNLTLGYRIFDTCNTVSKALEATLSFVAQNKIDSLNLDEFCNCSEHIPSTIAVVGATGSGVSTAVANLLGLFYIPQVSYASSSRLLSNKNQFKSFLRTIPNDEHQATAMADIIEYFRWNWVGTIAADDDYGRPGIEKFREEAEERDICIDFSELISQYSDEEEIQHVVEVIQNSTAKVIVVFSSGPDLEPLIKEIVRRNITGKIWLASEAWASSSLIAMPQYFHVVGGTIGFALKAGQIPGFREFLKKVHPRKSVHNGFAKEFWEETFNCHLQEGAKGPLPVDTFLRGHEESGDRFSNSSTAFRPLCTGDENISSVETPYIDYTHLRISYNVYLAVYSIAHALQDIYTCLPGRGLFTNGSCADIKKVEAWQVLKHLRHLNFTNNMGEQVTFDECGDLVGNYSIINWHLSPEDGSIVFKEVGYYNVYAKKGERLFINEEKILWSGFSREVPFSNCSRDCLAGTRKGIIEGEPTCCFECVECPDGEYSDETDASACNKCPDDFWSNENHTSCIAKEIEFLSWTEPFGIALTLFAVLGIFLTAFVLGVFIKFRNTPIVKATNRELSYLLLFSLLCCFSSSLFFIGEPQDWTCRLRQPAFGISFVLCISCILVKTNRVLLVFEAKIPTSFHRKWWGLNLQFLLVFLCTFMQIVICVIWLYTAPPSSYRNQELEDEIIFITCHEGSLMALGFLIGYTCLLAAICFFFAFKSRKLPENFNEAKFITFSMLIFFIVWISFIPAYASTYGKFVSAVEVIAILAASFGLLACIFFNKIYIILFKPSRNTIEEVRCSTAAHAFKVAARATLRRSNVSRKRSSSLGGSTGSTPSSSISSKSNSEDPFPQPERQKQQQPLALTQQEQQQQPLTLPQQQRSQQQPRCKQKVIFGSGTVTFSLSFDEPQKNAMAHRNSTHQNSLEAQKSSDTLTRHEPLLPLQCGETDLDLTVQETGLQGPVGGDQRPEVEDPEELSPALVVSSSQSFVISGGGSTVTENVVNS
Assay: EC50 (concentration evoking a half-maximal effect) at an inorganic ion receptor / calcium receptor
Assay type: cell-based
Excerpt: The EC50 is the concentration of the molecule which evokes a half-maximal effect. The IC50 is the concentration of molecule which causes a half-maximal blocking effect. The EC50 or IC50 can be determined by assaying one or more of the activities of an inorganic ion at an inorganic ion receptor. Preferably, such assays are specific to a particular calcium receptor. For example, assays which measure hormones whose production or secretion is modulated by a particular inorganic ion receptor are preferred.
Nemeth et al., PCT/US93/01642, International Publication Number WO 94/18959. For example, poly(A)^+ mRNA can be obtained from cells expressing a calcium receptor, such as a parathyroid cell, bone osteoclast, juxtaglomerular kidney cell, proximal tubule kidney cell, distal tubule kidney cell, cell of the thick ascending limb of Henle's loop and/or collecting duct, keratinocyte in the epidermis, parafollicular cell in the thyroid (C-cell), intestinal cell, central nervous cell, peripheral nervous system cell, trophoblast in the placenta, platelet, vascular smooth muscle cell, cardiac atrial cell, gastrin-secreting cell, glucagon-secreting cell, kidney mesangial cell, mammary cell, beta cell, fat/adipose cell, immune cell, and GI tract cell. Preferably, the nucleic acid is from a parathyroid cell, C-cell, or osteoclast. More preferably, the nucleic acid encodes a calcium receptor and is present on a plasmid or vector.

[1] = concentration of the molecule which evokes a half-maximal effect, preferred agents, cell type and assay read-out not stated, read-out: EC50

Row | pEC50 [1] | Compound | pEC50
1 | > 5.30 | CSc1cccc(C(C)NCCCc2ccccc2)c1 (racemic) [Compound 8J, N-(3-phenylpropyl)-1-(3-thiomethylphenyl)ethylamine hydrochloride] | 
2 | > 5.30 | C[C@@H](N[C@H](C)c1cccc2ccccc12)c1ccc2ccccc2c1 [Compound 9R, (R)-N-(1-(2-naphthyl)ethyl)-(R)-1-(1-naphthyl)ethylamine hydrochloride] | 
3 | > 5.30 | COc1ccc(CN[C@H](C)c2cccc3ccccc23)cc1Cl [Compound 16M, N-(3-chloro-4-methoxybenzyl)-(R)-1-(1-naphthyl)ethylamine hydrochloride] | 
4 | > 5.30 | COc1ccc([C@@H](C)N[C@H](C)c2cccc3ccccc23)cc1C [Compound 16P, (R)-N-(1-(4-Methoxy-3-methylphenyl)ethyl)-(R)-1-(1-naphthyl)ethylamine hydrochloride] | 

More lines, now with the values behind:

Row | Compound | pEC50 [1] | pEC50
5 | COc1cccc([C@@H](C)NCCCc2ccccc2OC)c1 [Compound 8U, N-3-(2-methoxyphenyl)-1-propyl-(R)-3-methoxy-α-methylbenzylamine hydrochloride] | > 5.30 | 
6 | CC(C)c1ccc(CN[C@H](C)c2cccc3ccccc23)cc1 [Compound 11X, N-(4-Isopropylbenzyl)-(R)-1-(1-naphthyl)ethylamine hydrochloride] | > 5.30 | 
7 | COc1cccc([C@@H](C)NCCCc2ccccc2C)c1 [Compound 12U, N-3-(2-methylphenyl)-1-propyl-(R)-3-methoxy-α-methylbenzylamine hydrochloride] | > 5.30 | 
8 | COc1cccc([C@@H](C)NCCCc2cccc(C)c2)c1 [Compound 12V, N-3-(3-methylphenyl)-1-propyl-(R)-3-methoxy-α-methylbenzylamine hydrochloride] | > 5.30 | 
9 | C[C@@H](NCCCc1ccccc1Cl)c1cccc2ccccc12 [Compound 12Z, N-3-(2-chlorophenyl)-1-propyl-(R)-1-(1-naphthyl)ethylamine hydrochloride] |  | > 5.30
10 | COc1ccc([C@@H](C)N[C@H](C)c2cccc3ccccc23)cc1 [Compound 14U, (R)-N-(1-(4-methoxyphenyl)ethyl)-(R)-1-(1-naphthyl)ethylamine hydrochloride] | > 5.30 | 
